Data as given in ChEMBL document CHEMBL3769311, “The natural flavone fukugetin as a mixed-type inhibitor for human tissue kallikreins” (Bioorg Med Chem Lett, 2016).

Experiments:
Kallikrein-2 [1] = molecular target: T1, Kallikrein-2 (Homo sapiens, UniProt P20151); test: Mixed-type inhibition of human tissue kallikrein-2 expressed in baculovirus infected insect cells using Abz-KLRSSQ-EDDnp as substrate preincubated for 10 mins followed by substrate addition by Lineweaver-Burk plot analysis
T1 sequence (P20151 whole entry): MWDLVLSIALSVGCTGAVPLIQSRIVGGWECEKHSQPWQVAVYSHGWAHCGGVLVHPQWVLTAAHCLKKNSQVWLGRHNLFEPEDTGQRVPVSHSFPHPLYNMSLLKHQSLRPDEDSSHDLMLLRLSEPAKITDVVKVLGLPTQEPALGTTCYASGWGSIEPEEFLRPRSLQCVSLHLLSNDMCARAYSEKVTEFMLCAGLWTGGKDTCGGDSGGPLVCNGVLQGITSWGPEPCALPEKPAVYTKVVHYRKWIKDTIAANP

Kallikrein-1 [2] = molecular target: T2, Kallikrein-1 (Homo sapiens, UniProt P06870); test: Inhibition of human tissue kallikrein-1 expressed in baculovirus infected insect cells using Abz-KLRSSQ-EDDnp as substrate preincubated for 10 mins followed by substrate addition by FRET assay
Kallikrein-2 [3] = molecular target: T1, Kallikrein-2; test: Inhibition of human tissue kallikrein-2 expressed in baculovirus infected insect cells using Abz-KLRSSQ-EDDnp as substrate preincubated for 10 mins followed by substrate addition by FRET assay
[4] = molecular target: T3, Prostate-specific antigen (Homo sapiens, UniProt P07288); test: Inhibition of human tissue kallikrein-3 expressed in baculovirus infected insect cells using Abz-KLYSSQ-EDDnp as substrate preincubated for 10 mins followed by substrate addition by FRET assay
T3 sequence (P07288 whole entry): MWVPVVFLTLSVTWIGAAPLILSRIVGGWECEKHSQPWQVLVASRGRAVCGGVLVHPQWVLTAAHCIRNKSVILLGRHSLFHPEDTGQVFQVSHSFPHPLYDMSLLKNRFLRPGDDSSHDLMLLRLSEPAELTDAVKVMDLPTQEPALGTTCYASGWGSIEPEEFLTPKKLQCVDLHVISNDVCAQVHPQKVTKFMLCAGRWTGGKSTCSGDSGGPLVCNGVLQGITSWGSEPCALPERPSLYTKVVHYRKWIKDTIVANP

Kallikrein-5 = molecular target: T4, Kallikrein-5 (Homo sapiens, UniProt Q9Y337); test: Inhibition of human tissue kallikrein-5 expressed in baculovirus infected insect cells using Abz-KLRSSQ-EDDnp as substrate preincubated for 10 mins followed by substrate addition by FRET assay
T4 sequence (Q9Y337 whole entry): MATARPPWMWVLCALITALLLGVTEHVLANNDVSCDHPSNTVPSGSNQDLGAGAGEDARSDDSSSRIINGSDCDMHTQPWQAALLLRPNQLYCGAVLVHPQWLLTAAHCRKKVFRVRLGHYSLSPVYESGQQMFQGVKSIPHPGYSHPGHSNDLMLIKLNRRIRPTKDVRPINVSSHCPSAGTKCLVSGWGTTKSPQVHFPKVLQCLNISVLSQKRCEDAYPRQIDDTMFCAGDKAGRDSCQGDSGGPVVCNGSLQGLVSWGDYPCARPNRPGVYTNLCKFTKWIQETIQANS

Kallikrein-6 = Kallikrein-6 (Homo sapiens, UniProt Q92876); test: Inhibition of human tissue kallikrein-6 expressed in baculovirus infected insect cells using Abz-KLRSSQ-EDDnp as substrate preincubated for 10 mins followed by substrate addition by FRET assay
Kallikrein-7 = Kallikrein-7 (Homo sapiens, UniProt P49862); test: Inhibition of human tissue kallikrein-7 expressed in baculovirus infected insect cells using Abz-KLYSSQ-EDDnp as substrate preincubated for 10 mins followed by substrate addition by FRET assay
Kallikrein-1 [5] = molecular target: T2, Kallikrein-1; test: Mixed-type inhibition of human tissue kallikrein-1 expressed in baculovirus infected insect cells using Abz-KLRSSQ-EDDnp as substrate preincubated for 10 mins followed by substrate addition by Lineweaver-Burk plot analysis

T2 sequence (P06870 whole entry): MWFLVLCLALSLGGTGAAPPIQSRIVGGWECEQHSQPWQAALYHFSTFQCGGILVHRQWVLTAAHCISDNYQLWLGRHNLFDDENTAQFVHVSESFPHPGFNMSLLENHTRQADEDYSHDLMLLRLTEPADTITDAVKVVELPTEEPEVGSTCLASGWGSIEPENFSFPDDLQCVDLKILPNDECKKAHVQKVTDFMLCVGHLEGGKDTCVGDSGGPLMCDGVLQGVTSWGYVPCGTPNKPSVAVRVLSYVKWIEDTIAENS
Chain of Kallikrein-7 (P49862 whole entry): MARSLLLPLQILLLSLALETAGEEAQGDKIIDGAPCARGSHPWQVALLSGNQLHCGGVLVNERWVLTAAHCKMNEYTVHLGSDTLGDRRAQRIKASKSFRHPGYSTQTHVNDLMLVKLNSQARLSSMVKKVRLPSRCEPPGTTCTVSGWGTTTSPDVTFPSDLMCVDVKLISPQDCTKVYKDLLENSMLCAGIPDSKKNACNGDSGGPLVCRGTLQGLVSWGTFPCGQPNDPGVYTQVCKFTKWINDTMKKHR

For O=C1CC(c2ccc(O)c(O)c2)Oc2c1c(O)cc(O)c2[C@@H]1C(=O)c2c(O)cc(O)cc2O[C@H]1c1ccc(O)cc1 (stereo partly drawn) [FUKUGETIN], the Ki (Kallikrein-2 [1]) was 1.6 µM, the IC50 (Kallikrein-1 [2]) was 5.7 µM and the IC50 (Kallikrein-2 [3]) was 3.2 µM. It also gave an IC50 [4] of 13 µM, an IC50 (Kallikrein-5) of 12.5 µM and an IC50 (Kallikrein-6) of 13.5 µM. For the same compound, the IC50 (Kallikrein-7) was 15 µM and the Ki (Kallikrein-1 [5]) was 3.6 µM.
